Experimental data taken from PubChem BioAssay (NCI).
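GI50: concentration for 50% inhibition of growth. TGI is the concentration that stops growth completely.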

What was measured:
Assay in all cases: growth of human tumour cells (NCI), 384-well format
786-0 renal = system: 786-0 renal
A549 NSCLC = system: A549 NSCLC
CCRF-CEM leukemia = system: CCRF-CEM leukemia
HL-60(TB) leukemia = system: HL-60(TB) leukemia
KM12 colon = system: KM12 colon
LOX IMVI melanoma = system: LOX IMVI melanoma
M14 melanoma = system: M14 melanoma
MCF7 breast = system: MCF7 breast
NCI-H522 lung = system: NCI-H522 lung
SK-MEL-28 melanoma = system: SK-MEL-28 melanoma
SK-OV-3 ovarian = system: SK-OV-3 ovarian
SN12C renal = system: SN12C renal
UO-31 renal = system: UO-31 renal

Cc1cc(Nc2ncc(Cl)c(Nc3ccccc3S(=O)(=O)C(C)C)n2)c(OC(C)C)cc1C1CCNCC1
GI50 (786-0 renal): 1.26 µM | TGI (786-0 renal): 2.52 µM | GI50 (A549 NSCLC): 1.4 µM | TGI (A549 NSCLC): 2.73 µM | GI50 (CCRF-CEM leukemia): 1.1 µM | TGI (CCRF-CEM leukemia): 2.43 µM | GI50 (HL-60(TB) leukemia): 0.218 µM | TGI (HL-60(TB) leukemia): 0.49 µM | GI50 (KM12 colon): 1.45 µM | TGI (KM12 colon): 2.78 µM | GI50 (LOX IMVI melanoma): 1.28 µM | TGI (LOX IMVI melanoma): 2.56 µM | GI50 (M14 melanoma): 1.27 µM | TGI (M14 melanoma): 2.55 µM | GI50 (MCF7 breast): 0.297 µM | TGI (MCF7 breast): 1.3 µM | GI50 (NCI-H522 lung): 1.76 µM | TGI (NCI-H522 lung): 3.15 µM | GI50 (SK-MEL-28 melanoma): 1.54 µM | TGI (SK-MEL-28 melanoma): 2.88 µM | GI50 (SK-OV-3 ovarian): 1.75 µM | TGI (SK-OV-3 ovarian): 3.16 µM | GI50 (SN12C renal): 1.75 µM | TGI (SN12C renal): 3.14 µM | GI50 (UO-31 renal): 1.69 µM | TGI (UO-31 renal): 3.07 µM
